{"source": "patent US20130203798A1", "about": "“DIAGNOSIS AND TREATMENT OF FUNCTIONAL DYSPEPSIA AND IRRITABLE BOWEL SYNDROME” (EV MED, priority 2012, published 2013)", "key": {"[1]": {"system": "coxsackievirus B3 (CVB3)", "assay": "Inhibition of enterovirus replication in chronically infected BGMK-DAF cells, viral RNA by qRT-PCR", "assay_type": "cell-based", "conditions": "for Viral RNA Log10: no treatment 6.84", "procedure": "(§1) Oxymatrine is an alkaloid with antiviral and immune boosting effect. […] 200,000 BGMK-DAF cells were infected with coxsackievirus B3,4 (CVB3,4) or echovirus 6,7 (Echo V6,7), previously titrated to cause complete lysis of cells in 48-72 hours, then treated with 0.18 μg of peg-interferon α-2a in 4 hours and 90 hours. Oxymatrine was added at 162 hours post-infection. Viral RNA, expressed in log10 was quantified by qRT-PCR with a cDNA standard, and reduction of log viral RNA calculated based on no-treatment wells. Duplicate wells were combined for viral RNA determination."}, "[2]": {"system": "coxsackievirus B4 (CVB4)", "assay": "Inhibition of enterovirus replication in chronically infected BGMK-DAF cells, viral RNA by qRT-PCR", "assay_type": "cell-based", "conditions": "for Viral RNA Log10: no treatment 4.20", "procedure": "as §1"}, "[3]": {"system": "echovirus 6 (EchoV 6)", "assay": "Inhibition of enterovirus replication in chronically infected BGMK-DAF cells, viral RNA by qRT-PCR", "assay_type": "cell-based", "conditions": "EchoV 6, BGMK-DAF cells; for Viral RNA Log10: no treatment 5.00", "procedure": "as §1"}, "[4]": {"system": "echovirus 7 (EchoV 7)", "assay": "Inhibition of enterovirus replication in chronically infected BGMK-DAF cells, viral RNA by qRT-PCR", "assay_type": "cell-based", "conditions": "EchoV 7, BGMK-DAF cells; for Viral RNA Log10: no treatment 5.61", "procedure": "as §1"}, "[5]": {"system": "enteroviruses", "assay": "In vitro inhibition of four enteroviruses in interferon pre-treated, chronically infected cells (summary)", "assay_type": "cell-based, enterovirus", "conditions": "cells pre-treated with interferon to produce chronic infection; four enteroviruses tested", "procedure": "as §1"}}}
{"smiles": "O=C1CCC[C@@H]2[C@H]3CCC[N@+]4([O-])CCC[C@@H](CN12)[C@@H]34", "note": "[Oxymatrine, oxymatrine]", "values": [{"measurement": "Dec Log10 (reduction of log viral RNA vs no-treatment wells)", "setting": "[1]; 1 μM oxymatrine", "result": "−6.24", "unit": "Log10"}, {"measurement": "Viral RNA Log10", "setting": "[1]; 1 μM oxymatrine", "result": 0.60, "unit": "Log10"}, {"measurement": "Dec Log10 (reduction of log viral RNA vs no-treatment wells)", "setting": "[1]; 10 μM oxymatrine", "result": "−6.54", "unit": "Log10"}, {"measurement": "Viral RNA Log10", "setting": "[1]; 10 μM oxymatrine", "result": 0.30, "unit": "Log10"}, {"measurement": "Dec Log10 (reduction of log viral RNA vs no-treatment wells)", "setting": "[1]; 100 μM oxymatrine", "result": "−5.54", "unit": "Log10"}, {"measurement": "Viral RNA Log10", "setting": "[1]; 100 μM oxymatrine added 162 h post-infection", "result": 1.30, "unit": "Log10"}, {"measurement": "Dec Log10 (reduction of log viral RNA vs no-treatment wells)", "setting": "[2]; 1 μM oxymatrine", "result": "−0.55", "unit": "Log10"}, {"measurement": "Viral RNA Log10", "setting": "[2]; 1 μM oxymatrine", "result": 3.66, "unit": "Log10"}, {"measurement": "Dec Log10 (reduction of log viral RNA vs no-treatment wells)", "setting": "[2]; 10 μM oxymatrine", "result": "−4.20", "unit": "Log10"}, {"measurement": "Viral RNA Log10", "setting": "[2]; 10 μM oxymatrine", "result": 0.00, "unit": "Log10"}, {"measurement": "Dec Log10 (reduction of log viral RNA vs no-treatment wells)", "setting": "[2]; 100 μM oxymatrine", "result": "−3.90", "unit": "Log10"}, {"measurement": "Viral RNA Log10", "setting": "[2]; 100 μM oxymatrine", "result": 0.30, "unit": "Log10"}, {"measurement": "Dec Log10 (reduction of log viral RNA vs no-treatment wells)", "setting": "[3]; 1 μM oxymatrine", "result": 0.00, "unit": "Log10"}, {"measurement": "Viral RNA Log10", "setting": "[3]; 1 μM oxymatrine", "result": 5.00, "unit": "Log10"}, {"measurement": "Dec Log10 (reduction of log viral RNA vs no-treatment wells)", "setting": "[3]; 10 μM oxymatrine", "result": 0.37, "unit": "Log10"}, {"measurement": "Viral RNA Log10", "setting": "[3]; 10 μM oxymatrine", "result": 5.37, "unit": "Log10"}, {"measurement": "Dec Log10 (reduction of log viral RNA vs no-treatment wells)", "setting": "[3]; 100 μM oxymatrine", "result": 0.00, "unit": "Log10"}, {"measurement": "Viral RNA Log10", "setting": "[3]; 100 μM oxymatrine", "result": 5.00, "unit": "Log10"}, {"measurement": "Dec Log10 (reduction of log viral RNA vs no-treatment wells)", "setting": "[4]; 1 μM oxymatrine", "result": "−0.28", "unit": "Log10"}, {"measurement": "Viral RNA Log10", "setting": "[4]; 1 μM oxymatrine", "result": 5.33, "unit": "Log10"}, {"measurement": "Dec Log10 (reduction of log viral RNA vs no-treatment wells)", "setting": "[4]; 10 μM oxymatrine", "result": "−0.17", "unit": "Log10"}, {"measurement": "Viral RNA Log10", "setting": "[4]; 10 μM oxymatrine", "result": 5.45, "unit": "Log10"}, {"measurement": "Dec Log10 (reduction of log viral RNA vs no-treatment wells)", "setting": "[4]; 100 μM oxymatrine", "result": 0.22, "unit": "Log10"}, {"measurement": "Viral RNA Log10", "setting": "[4]; 100 μM oxymatrine", "result": 5.83, "unit": "Log10"}, {"measurement": "Inhibition of enteroviruses in vitro", "setting": "[5]", "result": "significant inhibition of two out of four enteroviruses"}]}
